According to patent US8420627B2, “Nasal, wound and skin formulations and methods for control of antibiotic-resistant staphylococci and other gram-positive bacteria” (priority 2009, dated 2013):
Entries after “also recorded” stand apart in the source; their conditions may differ. Read-outs that look alike come from different tables or passages of the source.

What was measured:
[1] = test system: Staphylococcus aureus VISA (Vancomycin intermediate sensitivity) ATCC 700699; assay: in vitro Minimum Inhibitory Concentration (MIC), growth/no growth in dilution tubes; format: cell-based; settings: for MIC: Staphylococcus aureus, read-out: MIC (Minimum Inhibitory Concentration); on Growth or No Growth: key: Growth (+); No Growth (0)
Experimental: (§1) Now reported are in vitro Minimum Inhibitory Concentrations (MIC) for dodecanol against Staphylococcus aureus MRSA, ATCC 33591, Staphylococcus aureus VISA (Vancomycin intermediate sensitivity) ATCC 700699, and Enterococcus faecalis ATCC 51299 (formerly Streptococcus faecalis VREF (vancomycin resistant)). One tenth of a cc of dodecanol was diluted with 50 cc of polyethylene glycol 400 and 449.9 cc of sterilized deionized water, followed by five doubling dilutions. […] When combined with the other components of the formulation, a synergistic effect is seen such that bactericidal activity is still maintained even when the concentration of dodecanol is reduced to 20 μg/mL.
(§2) Now reported are in vitro Minimum Inhibitory Concentrations (MIC) for glycerol monolaurate against Staphylococcus aureus MRSA, ATCC 33591, Staphylococcus aureus VISA (Vancomycin intermediate sensitivity) ATCC 700699 and Vancomycin resistant Enterococcus faecalis ATCC 51299 (formerly Streptococcus faecalis VRSF). […] When combined with the other components of the formulation a synergistic effect is seen such that bactericidal activity is still maintained even when the concentration of glycerol monolaurate is reduced to 15 μg/mL.

[2] = test system: Vancomycin resistant Enterococcus faecalis ATCC 51299; assay: as above; format: cell-based; on Growth or No Growth: key: Growth (+); No Growth (0)
Experimental: as §1, §2

[3] = test system: S. aureus; settings: Glycerol Esters of Fatty Acids; cited from earlier work
[4] = test system: Staphylococcus aureus MRSA, ATCC 33591; assay: in vitro Minimum Inhibitory Concentration (MIC), growth/no growth in dilution tubes; format: cell-based; settings: for MIC of Glycerol monolaurate in two-component combination: combined with 40 μg/mL Dodecanol; for Concentration of the component at which bactericidal activity is still maintained in the three-component combination: dodecanol, glycerol monolaurate and benzoic acid combined; on Growth or No Growth: key: Growth (+); No Growth (0)
Experimental: as §1, §2
The Minimum Inhibitory Concentration (MIC) for benzoic acid was determined against Staphylococcus aureus MRSA.
The MIC for dodecanol was experimentally determined to be about 83 micrograms/mL, the MIC for glycerol monolaurate was experimentally determined to be about 62.5 micrograms/mL, and the MIC for benzoic acid was experimentally determined to be about 1250 micrograms/mL. […] When a third component, the organic acid benzoic acid, was added to the formulation, the MICs for all three were much lower.

[5] = test system: Staphylococcus aureus MRSA, ATCC 33591; assay: In vitro time-kill, one minute contact; format: cell-based; settings: for CFU Recovered: Initial Count 5.6 × 10^6
Experimental: (§3) Dodecanol and glycerol monolaurate were diluted to 2,000 micrograms/mL and then diluted to the following concentrations: Dodecanol: 100 micrograms/mL and glycerol monolaurate: 250 micrograms/mL. Each challenge organism was confirmed by Gram stain and colony morphology. […] Log reductions and percent reductions presented in Tables VII and VIII below were calculated using the following equations: […]
The nasal formulation of the invention was tested against S. aureus MRSA, ATCC 33591. The contact time for the formulation with the bacteria was one minute, after which time, an 8.3 log reduction in bacterial count was observed.
The hand and body wash formulation of the invention was tested against S. aureus MRSA, ATCC 33591 and MDR Klebsiella pneumoniae ATCC CI-2004.

[6] = test system: Enterococcus faecalis ATCC 51299; assay: In vitro time-kill, one minute contact; format: cell-based; settings: for CFU Recovered: Initial Count 5.6 × 10^6
Experimental: as §3

[7] = test system: Staphylococcus aureus VISA, ATCC 700699; assay: In vitro time-kill, one minute contact; format: cell-based; settings: for CFU Recovered: Initial Count 5.6 × 10^6
Experimental: as §3

[8] = test system: Staphylococcus; settings: cited from earlier work
[9] = test system: MRSA; assay: Topical treatment of MRSA lesions in patients (case examples); format: in vivo, human; settings: treatment before the formulation ointment; single patients
Text: EXAMPLES OF SUCCESSFUL TREATMENT OF MRSA LESIONS USING THE NOVEL FORMULATIONS OF THE INVENTION ARE PROVIDED BELOW

[10] = Irritation of mucous membranes; settings: low concentrations (83 micrograms/mL)
[11] = Glycerol Monolaurate at 250 μg/mL

Question: For CCCCCCCCCCCC(=O)OCC(O)CO (centres unmarked) [Glycerol Monolaurate, glycerol monolaurate], which MIC [1] is on record?
Answer: 62.5 µg/mL

Question: What about the “Growth or No Growth” value ([1]; final concentration 31.25 micrograms/mL, S. aureus VISA) of the same molecule?
Answer: +

Question: And the “Growth or No Growth” value ([1]; final concentration 62.5 micrograms/mL, S. aureus VISA)?
Answer: 0

Question: And the “Growth or No Growth” value ([1]; final concentration 125 micrograms/mL, S. aureus VISA)?
Answer: 0

Question: And the “Growth or No Growth” value ([1]; final concentration 250 micrograms/mL, S. aureus VISA)?
Answer: 0

Question: What about the MIC ([2]; Enterococcus faecalis, ATCC51299, read-out: MIC (Minimum Inhibitory Concentration)) of the same molecule?
Answer: 125 µg/mL

Question: And the “Growth or No Growth” value ([2]; final concentration 31.25 micrograms/mL, Enterococcus faecalis)?
Answer: +

Question: What about the “Growth or No Growth” value ([2]; final concentration 62.5 micrograms/mL, Enterococcus faecalis) of the same molecule?
Answer: +

Question: And the “Growth or No Growth” value ([2]; final concentration 125 micrograms/mL, Enterococcus faecalis)?
Answer: 0

Question: And the “Growth or No Growth” value ([2]; final concentration 250 micrograms/mL, Enterococcus faecalis)?
Answer: 0

Question: And the “Minimum inhibitory concentration for Staphylococcus” value [3]?
Answer: 250 micrograms/mL

Question: What about the “MIC (Minimum Inhibitory Concentration)” value ([4]; S. aureus MRSA, glycerol monolaurate alone) of the same molecule?
Answer: 62.5 micrograms/mL

Question: What about the “MIC (Minimum Inhibitory Concentration)” value ([4]; S. aureus MRSA, glycerol monolaurate alone, listed as Glycerol monolaurate) of the same molecule?
Answer: 62.5 micrograms/mL

Question: What about the MIC ([4]; Staphylococcus aureus, read-out: MIC (Minimum Inhibitory Concentration), S. aureus MRSA, glycerol monolaurate alone) of the same molecule?
Answer: 62.5 µg/mL

Question: What about the “MIC of Glycerol monolaurate in two-component combination” value ([4]; S. aureus MRSA, listed as Glycerol monolaurate) of the same molecule?
Answer: 30 μg/mL Glycerol monolaurate

Question: And the “MIC of Glycerol monolaurate in two-component combination” value ([4]; S. aureus MRSA, listed as glycerol monolaurate)?
Answer: ~30 µg/mL

Question: And the “Concentration of the component at which bactericidal activity is still maintained in the three-component combination” value ([4]; MRSA)?
Answer: 15 µg/mL

Question: What about the “Growth or No Growth” value ([4]; final concentration 31.25 micrograms/mL, S. aureus MRSA) of the same molecule?
Answer: +

Question: And the “Growth or No Growth” value ([4]; final concentration 62.5 micrograms/mL, S. aureus MRSA)?
Answer: 0

Question: What about the “Growth or No Growth” value ([4]; final concentration 125 micrograms/mL, S. aureus MRSA) of the same molecule?
Answer: 0

Question: And the “Growth or No Growth” value ([4]; final concentration 250 micrograms/mL, S. aureus MRSA)?
Answer: 0

Question: What about the “% Reduction” value [5, 11] of the same molecule?
Answer: 100%

Question: And the “Log Reduction” value [5, 11]?
Answer: 6.75

Question: And the “CFU Recovered” value [5, 11]?
Answer: <5 × 10^0 CFU per mL

Question: And the “% Reduction” value [6, 11]?
Answer: 100%

Question: And the “Log Reduction” value [6, 11]?
Answer: 7.04

Question: And the “CFU Recovered” value [6, 11]?
Answer: <5 × 10^0 CFU per mL

Question: And the “% Reduction” value [7, 11]?
Answer: 100%

Question: What about the “Log Reduction” value [7, 11] of the same molecule?
Answer: 7.1

Question: What about the “CFU Recovered” value [7, 11] of the same molecule?
Answer: <5 × 10^0 CFU per mL

Question: Which “Effective Bactericidal Concentration of Primary Alcohols against Staphylococcus” value (“Effective Bactericidal Concentration” for short) [8] does the source give for CCCCCCCCCCO [C-10] here?
Answer: 50 Micrograms/mL

Question: Which “Clinical outcome of prior treatment of MRSA lesions” value [9] does the source give for C/C(=C\C(=O)OCCCCCCCCC(=O)O)C[C@@H]1OC[C@H](C[C@@H]2O[C@H]2[C@@H](C)[C@H](C)O)[C@@H](O)[C@H]1O [mupirocin] here?
Answer: the MRSA was still present in the patient's sinuses; also recorded: unsuccessfully treated

Question: With CCCCCCCCCO [C-9] as the molecule, how does the “Effective Bactericidal Concentration” value [8] read?
Answer: 200 Micrograms/mL

Question: For CCCCCCCCCCCCC(=O)OCC(O)CO (centres unmarked) [13 Carbon Mono, Tridecanoyl monoglyceride], which “Minimum inhibitory concentration for Staphylococcus” value [3] is on record?
Answer: No Inhibition

Question: Which “Effective Bactericidal Concentration” value [8] does the source give for CCCCCCCCO [C-8] here?
Answer: 800 Micrograms/mL

Question: Which “Effective Bactericidal Concentration” value [8] does the source give for CCCCCCCCCCCCCO [C-13] here?
Answer: >800 Micrograms/mL

Question: For CCCCCCCCCCCO [C-11], which “Effective Bactericidal Concentration” value [8] is on record?
Answer: 25 Micrograms/mL

Question: Which results are given for CCCCCCCCCCCCO [Dodecanol, 1-dodecanol]?
Answer: Effective Bactericidal Concentration of Primary Alcohols against Staphylococcus [8]: 12.5 Micrograms/mL; MIC ([1]; S. aureus VISA, dodecanol alone): 83 µg/mL; Growth or No Growth ([1]; final concentration 2.53125 μg/mL, S. aureus VISA): +; Growth or No Growth ([1]; final concentration 5.0625 μg/mL, S. aureus VISA): +; Growth or No Growth ([1]; final concentration 10.125 μg/mL, S. aureus VISA): +; Growth or No Growth ([1]; final concentration 20.25 μg/mL, S. aureus VISA): +; Growth or No Growth ([1]; final concentration 41.5 μg/mL, S. aureus VISA): +; Growth or No Growth ([1]; final concentration 83 μg/mL, S. aureus VISA): 0; MIC ([2]; Enterococcus faecalis, ATCC 51299 / VRE, E. faecalis VRE, dodecanol alone, read-out: MIC (Minimum Inhibitory Concentration)): 83 µg/mL; Growth or No Growth ([2]; final concentration 2.53125 μg/mL, E. faecalis VRE): +; Growth or No Growth ([2]; final concentration 5.0625 μg/mL, E. faecalis VRE): +; Growth or No Growth ([2]; final concentration 10.125 μg/mL, E. faecalis VRE): +; Growth or No Growth ([2]; final concentration 20.25 μg/mL, E. faecalis VRE): +; Growth or No Growth ([2]; final concentration 41.5 μg/mL, E. faecalis VRE): +; Growth or No Growth ([2]; final concentration 83 μg/mL, E. faecalis VRE): 0; MIC ([4]; Staphylococcus aureus, S. aureus MRSA, dodecanol alone, read-out: MIC (Minimum Inhibitory Concentration)): 83 µg/mL; MIC of Dodecanol in two-component combination ([4]; combined with 30 μg/mL Glycerol monolaurate, S. aureus MRSA): 40 μg/mL Dodecanol; Concentration of the component at which bactericidal activity is still maintained in the three-component combination ([4]; MRSA): 20 µg/mL; Growth or No Growth ([4]; final concentration 2.53125 μg/mL, S. aureus MRSA): +; Growth or No Growth ([4]; final concentration 5.0625 μg/mL, S. aureus MRSA): +; Growth or No Growth ([4]; final concentration 10.125 μg/mL, S. aureus MRSA): +; Growth or No Growth ([4]; final concentration 20.25 μg/mL, S. aureus MRSA): +; Growth or No Growth ([4]; final concentration 41.5 μg/mL, S. aureus MRSA): +; Growth or No Growth ([4]; final concentration 83 μg/mL, S. aureus MRSA): 0; % Reduction ([5]; Dodecanol at 100 μg/mL): 100%; Log Reduction ([5]; Dodecanol at 100 μg/mL): 6.75; CFU Recovered ([5]; Dodecanol at 100 μg/mL): <5 × 10^0 CFU per mL; Irritating effects on the mucous membranes [10]: no irritating effects; % Reduction ([6]; Dodecanol at 100 μg/mL): 100%; Log Reduction ([6]; Dodecanol at 100 μg/mL): 7.04; CFU Recovered ([6]; Dodecanol at 100 μg/mL): <5 × 10^0 CFU per mL; % Reduction ([7]; Dodecanol at 100 μg/mL): 100%; Log Reduction ([7]; Dodecanol at 100 μg/mL): 7.18; CFU Recovered ([7]; Dodecanol at 100 μg/mL): <5 × 10^0 CFU per mL

Question: For O=C(O)c1ccccc1 [Benzoic Acid, benzoic acid], which “Growth or No Growth” value ([4]; Benzoic Acid 625 μg/mL, S. aureus MRSA, Average CFU/mL 8.9 × 10^6) is on record?
Answer: +

Question: And the “Growth or No Growth” value ([4]; Benzoic Acid 1,250 μg/mL, S. aureus MRSA, Average CFU/mL 8.9 × 10^6)?
Answer: 0

Question: And the “Growth or No Growth” value ([4]; Benzoic Acid 2,500 μg/mL, S. aureus MRSA, Average CFU/mL 8.9 × 10^6)?
Answer: 0

Question: What about the “Growth or No Growth” value ([4]; Benzoic Acid 5,000 μg/mL, S. aureus MRSA, Average CFU/mL 8.9 × 10^6) of the same molecule?
Answer: 0

Question: And the “Growth or No Growth” value ([4]; Benzoic Acid 10,000 μg/mL, S. aureus MRSA, Average CFU/mL 8.9 × 10^6)?
Answer: 0

Question: What about the “MIC of Benzoic Acid in combination” value ([4]; Dodecanol (20 μ/mL) and Glycerol Monolaurate (15 μ/mL) held constant, MRSA) of the same molecule?
Answer: <312.5 µg/mL

Question: What about the MIC ([4]; S. aureus MRSA, Average CFU/mL 8.9 × 10^6, benzoic acid alone) of the same molecule?
Answer: 1250 µg/mL

Question: And the MIC ([4]; Staphylococcus aureus, S. aureus MRSA, Average CFU/mL 8.9 × 10^6, benzoic acid alone)?
Answer: 1250 µg/mL

Question: And the “Concentration of the component at which bactericidal activity is still maintained in the three-component combination” value ([4]; MRSA)?
Answer: 312.5 µg/mL
